Earlier results, collected in US12130296B2, “Method for the direct detection and/or quantification of at least one compound with a molecular weight of at least 200” (SANIFIT THERAPEUTICS S.A., priority 2011, dated 2024).

Details: 12 dissociable protons; Carbohydr Res 46, 159-171; 1976

O=P(O)(O)O[C@H]1[C@H](OP(=O)(O)O)[C@@H](OP(=O)(O)O)[C@H](OP(=O)(O)O)[C@@H](OP(=O)(O)O)[C@H]1OP(=O)(O)O [inositol hexaphosphate]
pKa values: from negative values to more than 10
